Experimental data: publication PMC10799935, “Discovery of a peripheral 5HT2A antagonist as a clinical candidate for metabolic dysfunction-associated steatohepatitis” (Nature Communications, 2024)
“And” between values parts separate entries of the source, which are not always exact repeats. Equal entries are not always repeated.

Columns and labels:
[1] = system: HFD-fed C57BL/6J mice; assay: DIO mice: body composition (fat and lean mass); format: in vivo, mouse; parameters: Body Mass RAW Fluid / Body Mass RAW Fat body mass / Body Mass RAW Lean body mass / Fat Body: Mean Diff., Vehicle vs. 11c / Lean Body: Mean Diff., Vehicle vs. 11c: unit not given here; conditions: for Fat Body: Mean Diff., Vehicle vs. 11c / Lean Body: Mean Diff., Vehicle vs. 11c: Dunnett's test; for Body Mass Analysis (%) Fat body mass / Body Mass Analysis (%) Lean body mass / Body Mass RAW Fat body mass / Body Mass RAW Lean body mass / Body Weight (body mass sheet) / Body Mass Analysis (%) Fluid / Body Mass RAW Fluid: DIO mice, individual mice and group Mean; for Body Weight (body mass sheet): in g (unit assumed)
Excerpt: For in vivo efficacy in DIO models and CDAHFD models, the experimental protocol for this study was approved by the Institutional Animal Care and Use Committee (IACUC) at the Korea Advanced Institute of Science and Technology (No. KA2023-027-v2) or Kyungpook National University (No. KNU-20200134). All relevant ethical guidelines were followed. C57BL/6 J male mice (11 weeks old) were purchased from the Charles River Japan and were housed in a specific pathogen-free barrier facility under a regular light-dark cycle (12-hour light/12-hour dark) at 24°C with 40–60% humidity. Food (standard chow diet, Envigo, 2018S) and water were provided ad libitum. […] Mice were euthanized by the method of cervical dislocation. The measurement of lean and fat mass in live mice was performed by a body composition analyzer (LF50 BCA-analyzer, Bruker). After 6 h of fasting, mice were sacrificed, and tissue samples were obtained.

[2] = biological target: CYP3A4 (Homo sapiens, UniProt P08684); assay: in vitro
Sequence of CYP3A4 (P08684 whole entry): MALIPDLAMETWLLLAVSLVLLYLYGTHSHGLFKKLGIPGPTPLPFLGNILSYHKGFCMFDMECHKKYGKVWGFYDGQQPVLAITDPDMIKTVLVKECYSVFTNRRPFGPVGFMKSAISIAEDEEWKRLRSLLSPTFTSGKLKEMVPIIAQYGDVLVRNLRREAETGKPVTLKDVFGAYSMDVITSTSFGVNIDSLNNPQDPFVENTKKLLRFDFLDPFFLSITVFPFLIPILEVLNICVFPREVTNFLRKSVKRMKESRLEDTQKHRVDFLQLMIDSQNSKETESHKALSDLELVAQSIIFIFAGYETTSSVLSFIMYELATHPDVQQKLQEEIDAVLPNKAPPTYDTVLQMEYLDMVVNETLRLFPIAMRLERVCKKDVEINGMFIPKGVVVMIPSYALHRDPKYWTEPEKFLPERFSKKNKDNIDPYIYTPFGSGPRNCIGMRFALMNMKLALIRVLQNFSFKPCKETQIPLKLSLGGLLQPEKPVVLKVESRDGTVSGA

[3] = in vitro; conditions: Chinese hamster
[4] = In vivo PK with diverse doses (5, 10, 20 mpk) for PK and PD co-relation
Experimental: In this paper, the authors based on their previous studies on 5-HT2A LKO mice and 5HT2A antagonists, try to synthesize a serial of new derivatives based on the compound 2 (Clarinex) to develop oral drug candidates of […]
Then the authors tested the pharmacokinetics of compound 11c both in rats and dogs by iv and gavage administration. Besides, the tissue distribution of compound 11c was also determined by […]
NASH and fibrosis. The following questions may need to be answered by the authors.
Comment 1: In general, after gavage administration for 8 weeks (page 178-179) or 12 weeks (page 274-275), the compound 11c mainly distributed in digestive track especially in intestines with comparatively lower plasma drug concentration as well as in the other organs.
Response: We appreciate the Reviewer’s comment. For most oral drugs, the high level of total radioactivity is often observed in gastrointestinal tract in QWBA (Quantitative Whole Body Autoradiography). In the study of QWBA for compound 11c, tissue distribution was evaluated in multiple time points. Total radioactivities in stomach and small intestine were high at early time points and decreased at late time points. […]

[5] = biological target: T1, 5HT1D (Rattus norvegicus, UniProt P28565); assay: 5HT subtype antagonism assay (Eurofins Cerep): 5HT1D; format: cell-based; conditions: concentration not given
T1 construct: host or cells: CHO cells
T1 sequence (P28565 whole entry): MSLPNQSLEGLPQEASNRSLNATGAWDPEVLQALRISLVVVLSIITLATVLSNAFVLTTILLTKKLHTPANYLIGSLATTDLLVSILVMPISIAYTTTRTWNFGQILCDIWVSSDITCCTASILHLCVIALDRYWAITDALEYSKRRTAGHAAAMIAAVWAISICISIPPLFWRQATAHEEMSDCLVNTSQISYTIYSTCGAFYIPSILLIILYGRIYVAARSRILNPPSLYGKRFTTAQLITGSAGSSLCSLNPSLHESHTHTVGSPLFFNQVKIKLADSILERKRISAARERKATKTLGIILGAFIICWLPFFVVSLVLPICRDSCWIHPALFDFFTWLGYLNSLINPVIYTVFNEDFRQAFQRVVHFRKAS
Experimental: The derivatives were evaluated at a concentration of 1 μM for their antagonist activity on the 5HT2A receptor (Tables 1–3)[33],[34]. Human 5HT2A stably transfected HEK293 cells (a type of cell derived from kidney embryos)[20] were seeded in a 96-well plate (Costar; 3603) at a density of 9 × 10^4 in 100 μL of minimum essential medium (Welgene; LM007-86) containing 10% dialyzed fetal bovine serum (Gibco; 30067–334) and 1% penicillin/streptomycin (Gibco; 15140-122) and kept in a 37 °C incubator for 24 h. The cells were stained with 100 μL of cytosolic calcium dye using the FLIPR calcium 6 assay solution (Molecular devices, #R8190) supplemented with 2.5 mM probenecid (Sigma; P8761) and incubated for 1 h at 37 °C. After 1 h, the designated amount of the compound was treated in each well and incubated for another 1 h at 37 °C. Then, the cells were loaded in a Flexstation 3 microplate reader (Molecular Devices; FlexStaion) and 50 μL of 5 μM 5HT (serotonin hydrochloride, Sigma; H9523) was injected from a source plate (Nunc 96-well polystyrene conical bottom MicroWell Plate, Thermo; 249662) and the fluorescence intensity (Ex/Em-485nm/ 525 nm) was measured. […]
Antagonism assay Source Stimulus Incubation Measured Detection Method […]

Q: With Cc1nc2n(c(=O)c1CCN1CCC(=C3c4ccc(Cl)cc4CCc4cccnc43)CC1)CCCC2O (stereo not drawn) [Compound 11c] as the compound, how does the “Fat Body: Mean Diff., Vehicle vs. 11c” value ([1]; 5mpk) read?
A: The value was 1.897.

Q: And the “Lean Body: Mean Diff., Vehicle vs. 11c” value ([1]; 5mpk)?
A: Its value is 3.43.

Q: And the fat mass ([1]; 10 mpk daily oral gavage, 8 weeks, vs vehicle-treated mice)?
A: The fat mass was “reduced”.

Q: And the “Fat Body: Mean Diff., Vehicle vs. 11c” value ([1]; 10mpk)?
A: Its value is 12.76.

Q: And the “Lean Body: Mean Diff., Vehicle vs. 11c” value ([1]; 10mpk)?
A: The value was 4.653.

Q: What about the “Body Mass Analysis (%) Fat body mass” value ([1]; 5mpk, 5 mg/kg) of the same compound?
A: The value was 34.69%.

Q: What about the “Body Mass Analysis (%) Lean body mass” value ([1]; 5mpk, 5 mg/kg) of the same compound?
A: Its value is 52.41%.

Q: What about the “Body Mass Analysis (%) Fat body mass” value ([1]; 5mpk, 5 mg/kg, group mean) of the same compound?
A: Its value is 34.7%.

Q: What about the “Body Mass Analysis (%) Lean body mass” value ([1]; 5mpk, 5 mg/kg, group mean) of the same compound?
A: Its value is 52.4%.

Q: And the “Body Mass RAW Fat body mass” value ([1]; 5mpk, 5 mg/kg, group mean)?
A: The value was 15.9.

Q: And the “Body Mass RAW Lean body mass” value ([1]; 5mpk, 5 mg/kg, group mean)?
A: The value was 23.8.

Q: What about the “Body Weight (body mass sheet)” value ([1]; 5mpk, 5 mg/kg) of the same compound?
A: The value was 45.7 and 40.4 and 39.5 and 37 and 43.5 and 51 and 45.4.

Q: And the “Body Mass Analysis (%) Fluid” value ([1]; 5mpk, 5 mg/kg, mean)?
A: The value was 6.8%.

Q: What about the “Body Mass RAW Fluid” value ([1]; 5mpk, 5 mg/kg, mean) of the same compound?
A: Its value is 3.1.

Q: What about the “Body Mass Analysis (%) Fat body mass” value ([1]; 5mpk, listed as 11C, 5 mg/kg) of the same compound?
A: The value was 42.9% and 30.1% and 27.5% and 28.0% and 34.3% and 39.1% and 41.1%.

Q: What about the “Body Mass Analysis (%) Fluid” value ([1]; 5mpk, listed as 11C, 5 mg/kg) of the same compound?
A: Its value is 7.2% and 5.5% and 5.6% and 5.7% and 8.1% and 8.2% and 7.4%.

Q: What about the “Body Mass Analysis (%) Lean body mass” value ([1]; 5mpk, listed as 11C, 5 mg/kg) of the same compound?
A: The value was 50.9% and 41.8% and 44.8% and 51.8% and 63.0% and 63.1% and 51.4%.

Q: And the “Body Mass RAW Fat body mass” value ([1]; 5mpk, listed as 11C, 5 mg/kg)?
A: The value was 19.5 and 15.6 and 13.7 and 11.6 and 14.0 and 17.9 and 18.8.

Q: What about the “Body Mass RAW Fluid” value ([1]; 5mpk, listed as 11C, 5 mg/kg) of the same compound?
A: Its value is 3.3 and 2.8 and 2.4 and 3.7 and 3.4.

Q: And the “Body Mass RAW Lean body mass” value ([1]; 5mpk, listed as 11C, 5 mg/kg)?
A: Its value is 23.2 and 21.7 and 22.3 and 21.5 and 25.8 and 28.9 and 23.5.

Q: And the “Body Mass Analysis (%) Fluid” value ([1]; 10mpk, 10 mg/kg)?
A: The value was 7.1% and 5.8% and 4.8% and 8.2% and 9.4%.

Q: What about the “Body Mass RAW Fat body mass” value ([1]; 10mpk, 10 mg/kg) of the same compound?
A: The value was 8.4 and 13.9 and 12.4 and 15.4 and 9.5 and 5.7.

Q: What about the “Body Mass RAW Fluid” value ([1]; 10mpk, 10 mg/kg) of the same compound?
A: Its value is 3.2 and 3.0 and 2.4 and 3.4 and 3.9 and 2.2.

Q: And the “Body Mass RAW Lean body mass” value ([1]; 10mpk, 10 mg/kg)?
A: The value was 22.2 and 25.2 and 20.6 and 25.5 and 23.2 and 23.1.

Q: What about the “Body Mass RAW Lean body mass” value ([1]; 10mpk, 10 mg/kg, group mean) of the same compound?
A: The value was 23.3.

Q: What about the “Body Weight (body mass sheet)” value ([1]; 10mpk, 10 mg/kg) of the same compound?
A: The value was 35.7 and 43.1 and 36.3 and 45.2 and 38.2 and 33.4.

Q: What about the “Body Weight (body mass sheet)” value ([1]; 10mpk, 10 mg/kg, mean) of the same compound?
A: Its value is 38.7.

Q: What about the “Body Mass Analysis (%) Fluid” value ([1]; 10mpk, 10 mg/kg, mean) of the same compound?
A: The value was 6.7%.

Q: What about the “Body Mass RAW Fat body mass” value ([1]; 10mpk, 10 mg/kg, mean) of the same compound?
A: Its value is 10.9.

Q: What about the inhibition at 10 µM [2] of the same compound?
A: The inhibition at 10 µM was 17.6%.

Q: And the IC50 [3]?
A: The IC50 was over 100 µM.

Q: What about the “concentration present up to 8 hrs” value [4] of the same compound?
A: Its value is “more than 20 nM and > 10 ng/mL”.

Q: What about the “Selectivity 1D: % inhibition” value [5] of the same compound?
A: The value was 3%.
